The target in one series is T1, purified human AEP (Homo sapiens, UniProt Q99538).
T1 construct: tested with purified active AEP, IC50 values for the top 8 candidates were found; purchased Sino Biological
T1 sequence (Q99538 18-323 limits assumed): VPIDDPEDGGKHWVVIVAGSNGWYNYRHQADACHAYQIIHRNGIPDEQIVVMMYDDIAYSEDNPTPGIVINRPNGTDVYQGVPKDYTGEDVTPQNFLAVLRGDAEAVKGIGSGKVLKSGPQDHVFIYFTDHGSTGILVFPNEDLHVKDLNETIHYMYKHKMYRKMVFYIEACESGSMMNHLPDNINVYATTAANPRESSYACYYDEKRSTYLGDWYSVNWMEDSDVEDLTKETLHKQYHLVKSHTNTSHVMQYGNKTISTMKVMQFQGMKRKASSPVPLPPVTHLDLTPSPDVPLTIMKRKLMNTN
As to the kind of experiment: AEP enzymatic assay with purified active enzyme (IC50). The conditions noted are these: purified recombinant enzyme; read-out: IC50 toward AEP. The format is biochemical. On the procedure: FIG. 1 illustrates a high-throughput screening scheme. […] The hits were validated further with purified human AEP, and promising compounds were categorized into 8 groups. Compounds from each group were tested and the cytotoxicity and specificity were determined.
(§1) Purified recombinant enzyme was incubated with various concentrations of inhibitor in appropriate assay buffers in the presence of increasing concentrations of inhibitor. The formation of fluorescent product was monitored in duplicate reactions and the data was fit to appropriate equations to calculate the IC50 values.
(§2) To identify small-molecule inhibitors of AEP, a high-throughput screen was designed in conjunction with the Emory Chemical Biology Discovery Center. The screen incorporated mouse kidney lysates to assay a 54,384 compound library. […] Additional structural analysis and grouping allowed the compounds to be sorted into 8 distinct backbone families. […] The specificity of the compounds was also determined using four major cysteine proteases (FIG. 2).
AEP—50 nM enzyme was pre-incubated with inhibitor in assay buffer (50 mM Sodium Citrate pH 5.5, 0.1% CHAPS, 60 mM Na2HPO4, 1 mM EDTA) for 10 min at 37° C. The reaction was initiated upon addition of 10 μM Cbz-Ala-Ala-Asn-AMC (Bachem)).

The next series deals with Cathepsin-L (Homo sapiens, UniProt P07711). Description: Cathepsin-L enzymatic assay (specificity). Type of series: biochemical. How it is done: as §1, §2
Cathepsin-L—100 nM enzyme was pre-incubated with inhibitor in assay buffer (100 mM Sodium Acetate pH 5.5, 1 mM EDTA) for 10 min at 37° C. The reaction was initiated upon addition of 25 μM substrate (D-Val-Leu-Lys-AMC (Bachem)).

The target of another series is T2, Cathepsin-S (Homo sapiens, UniProt P25774).
T2 construct: purchased Athens Research and Technology
As to the kind of experiment: Cathepsin-S enzymatic assay (specificity). Type of series: biochemical. On the procedure: as §1, §2
Cathepsin-S—100 nM enzyme was pre-incubated with inhibitor in assay buffer (100 mM NaH2PO4 pH 6.5, 100 mM NaCl) for 10 min at 37° C. The reaction was initiated upon addition of 25 μM substrate (Boc-Val-Leu-Lys-AMC (Bachem)).

A further series concerns the target T3, Caspase-3 (Homo sapiens, UniProt P42574).
T3 construct: purchased Millipore
As to the kind of experiment: Caspase-3 enzymatic assay (specificity). The format is biochemical. How it is done: as §1, §2
(§3) Caspase-3 and 8 —The enzyme was pre-incubated with inhibitor in assay buffer (100 mM HEPES pH 7.4, 0.1% CHAPS, 10% Sucrose) for 10 min at 37° C. The reaction was initiated upon addition of 25 μM substrate (Ac-Asp-Glu-Val-Asp-AMC (Bachem)).

A further series concerns the target T4, Caspase-8 (Homo sapiens, UniProt Q14790).
T4 construct: purchased Millipore
Description: Caspase-8 enzymatic assay (specificity). The format is biochemical. On the procedure:
as §1, §2, §3

In the next series the test system is Caco-2 monolayer. As to the kind of experiment: Caco-2 monolayer permeability screen. Type of series: in vitro ADME. A general note: Passage across Caco-2 layers is used to estimate intestinal permeability.
The next series has as its target CYP3A4 (Homo sapiens, UniProt P08684). Description: CYP inhibition screening, CYP3A4-Midazolam. The format is in vitro ADME.
A further series has as its system CYP3A. Description: CYP inhibition screening, CYP3A-Testosterone. The format is in vitro ADME.
In the next series the target is CYP2C9 (Homo sapiens, UniProt P11712). Description: CYP inhibition screening, CYP2C9. Type of series: in vitro ADME.
Another series addresses CYP2D6 (Homo sapiens, UniProt P10635). Description: CYP inhibition screening, CYP2D6. Type of series: in vitro ADME.
Another series deals with CYP2C19 (Homo sapiens, UniProt P33261). Description: CYP inhibition screening, CYP2C19. Type of series: in vitro ADME.
A further series has as its target T5, CYP1A2 (Homo sapiens, UniProt P05177).
T5 sequence (P05177 1-516): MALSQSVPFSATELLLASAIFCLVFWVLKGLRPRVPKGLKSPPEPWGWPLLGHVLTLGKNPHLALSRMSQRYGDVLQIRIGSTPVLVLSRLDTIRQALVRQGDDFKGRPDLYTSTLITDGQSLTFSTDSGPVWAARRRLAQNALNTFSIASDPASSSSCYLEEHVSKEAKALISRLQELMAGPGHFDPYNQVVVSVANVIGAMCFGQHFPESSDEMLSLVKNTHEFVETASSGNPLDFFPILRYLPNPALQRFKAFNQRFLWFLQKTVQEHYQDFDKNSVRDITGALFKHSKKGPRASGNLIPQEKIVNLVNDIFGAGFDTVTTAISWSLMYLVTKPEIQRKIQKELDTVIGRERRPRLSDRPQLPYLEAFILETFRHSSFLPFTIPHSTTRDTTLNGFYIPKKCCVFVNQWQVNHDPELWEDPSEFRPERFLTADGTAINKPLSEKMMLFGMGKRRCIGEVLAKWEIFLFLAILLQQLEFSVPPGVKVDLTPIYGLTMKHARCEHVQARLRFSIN
Description: CYP inhibition screening, CYP1A2. Type of series: in vitro ADME.

The test system of series [1] is cleavage of the amyloid precursor protein (APP). Description: OGD in primary cortical neurons, APP cleavage (immunoblot). The format is cell-based. The note with it: 0.1 μM compound. How it is done: A. AEP activity, measured in primary neuronal cultures with 5 μM Cbz-Ala-Ala-Asn-AMC (x-axis denotes neurons were treated with 0.1 μM or 1.0 μM specified compound). B. Caspase activity, measured in primary neuronal cultures with 5 μM Ac-Asp-Glu-Val-Asp-AMC. C. Cathepsin activity, measured in primary neuronal cultures with 5 μM D-Val-Leu-Lys-AMC. D. Inhibition of APP cleavage. Lysates of primary cortical neurons pre-incubated with compounds for 30 min, underwent OGD for 4 hrs, were reperfused for 18 hrs (normoxia neurons remained at normoxic conditions). E. APP can be cleaved in a dose-dependent manner. Lysates of primary cortical neurons pre-incubated with compounds for 30 min, underwent OGD for 4 hrs, were reperfused for 18 hrs (normoxia neurons remained at normoxic conditions).
Depriving cells of oxygen and glucose is a cellular model that is employed to trigger acidosis in cultured cells. The efficacy of the compounds in a cellular model of oxygen-glucose deprivation (OGD) was determined in an effort to mimic the effects of stroke in primary cultured neurons. As a result of depriving neurons of oxygen and glucose-containing medium, AEP activity was doubled (FIG. 7A, ‘DMSO-Norm’ compared to ‘DMSO-OGD’), while Caspase-3 and Cathepsin activities remained relatively unchanged. […] Cleavage of APP is observed in response to only DMSO treatment (FIG. 7D, lane 2), and it appears that upon the treatment of 1 μM of compounds 10, 11, and 12, and just 0.1 μM of compounds 31, 38 and 64, the cleavage was blocked, presumably due to AEP inhibition.
Compounds were pre-incubated with primary culture neurons, DIV13, for 30 min. The medium was exchanged for glucose-free DMEM and neurons were de-gased and incubated at 37° C., 95% N2/5% CO2 for 4 hrs with compounds. The medium was exchanged for DMEM and supplemented with compounds, then neurons were reperfused for 18 hrs under normoxic conditions. The neuronal lysates were prepared for AEP, Caspase-3 and Cathepsin assays. Moreover, immunoblotting analysis was conducted with the neuronal lysates using anti-APP, anti-AEP antibodies.
On the technique in general: In western blotting, separated proteins are transferred to a membrane and probed.

For series [2] the following is noted: PAMPA. A general note: PAMPA measures passive passage across an artificial lipid membrane.
The nature of series [3]: Liver microsomal stability, human. The note with it: human liver microsomes.
Series [4] is described as follows: Liver microsomal stability, mouse. The note with it: mouse liver microsomes.

The structures appear in SMILES notation.

Chain of CYP2C9 (P11712 whole entry): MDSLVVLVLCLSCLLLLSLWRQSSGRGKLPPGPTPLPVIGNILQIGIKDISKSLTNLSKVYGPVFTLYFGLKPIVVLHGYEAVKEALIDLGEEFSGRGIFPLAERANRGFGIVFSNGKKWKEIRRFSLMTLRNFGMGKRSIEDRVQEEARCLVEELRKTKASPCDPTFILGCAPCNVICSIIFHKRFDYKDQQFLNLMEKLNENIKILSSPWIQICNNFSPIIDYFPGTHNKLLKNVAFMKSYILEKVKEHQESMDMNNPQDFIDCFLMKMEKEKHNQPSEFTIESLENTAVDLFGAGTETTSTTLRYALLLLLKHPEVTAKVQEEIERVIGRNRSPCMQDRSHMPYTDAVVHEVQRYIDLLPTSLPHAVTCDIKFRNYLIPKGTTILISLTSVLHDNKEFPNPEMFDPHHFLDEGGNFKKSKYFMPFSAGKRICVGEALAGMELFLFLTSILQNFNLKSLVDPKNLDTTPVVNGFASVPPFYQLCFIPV
Chain of CYP2D6 (P10635 whole entry): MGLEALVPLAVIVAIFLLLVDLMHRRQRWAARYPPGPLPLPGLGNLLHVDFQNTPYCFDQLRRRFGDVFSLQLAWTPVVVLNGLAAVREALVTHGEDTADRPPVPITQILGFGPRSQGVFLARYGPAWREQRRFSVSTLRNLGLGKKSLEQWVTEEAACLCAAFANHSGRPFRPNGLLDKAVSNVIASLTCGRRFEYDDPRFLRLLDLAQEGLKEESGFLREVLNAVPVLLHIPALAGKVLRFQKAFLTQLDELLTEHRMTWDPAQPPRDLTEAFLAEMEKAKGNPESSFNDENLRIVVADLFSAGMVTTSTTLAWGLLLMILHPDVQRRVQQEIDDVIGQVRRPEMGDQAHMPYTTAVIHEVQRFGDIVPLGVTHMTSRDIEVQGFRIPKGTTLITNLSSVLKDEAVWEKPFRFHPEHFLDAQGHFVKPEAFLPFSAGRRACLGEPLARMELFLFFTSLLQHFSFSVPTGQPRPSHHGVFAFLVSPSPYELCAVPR
Chain of CYP3A4 (P08684 whole entry): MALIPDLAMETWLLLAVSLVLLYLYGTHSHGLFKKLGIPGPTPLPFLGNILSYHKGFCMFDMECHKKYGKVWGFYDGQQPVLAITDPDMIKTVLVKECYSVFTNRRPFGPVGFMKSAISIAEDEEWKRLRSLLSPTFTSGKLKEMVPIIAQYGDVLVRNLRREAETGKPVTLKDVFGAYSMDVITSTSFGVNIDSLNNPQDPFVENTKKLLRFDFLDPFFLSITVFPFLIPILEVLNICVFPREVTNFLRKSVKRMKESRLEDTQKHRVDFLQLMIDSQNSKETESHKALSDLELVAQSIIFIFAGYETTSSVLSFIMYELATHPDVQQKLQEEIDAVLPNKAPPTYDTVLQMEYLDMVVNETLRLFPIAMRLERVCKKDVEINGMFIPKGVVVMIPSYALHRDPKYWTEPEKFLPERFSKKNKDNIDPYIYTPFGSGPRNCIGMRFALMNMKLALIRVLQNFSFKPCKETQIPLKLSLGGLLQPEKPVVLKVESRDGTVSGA
Chain of CYP2C19 (P33261 whole entry): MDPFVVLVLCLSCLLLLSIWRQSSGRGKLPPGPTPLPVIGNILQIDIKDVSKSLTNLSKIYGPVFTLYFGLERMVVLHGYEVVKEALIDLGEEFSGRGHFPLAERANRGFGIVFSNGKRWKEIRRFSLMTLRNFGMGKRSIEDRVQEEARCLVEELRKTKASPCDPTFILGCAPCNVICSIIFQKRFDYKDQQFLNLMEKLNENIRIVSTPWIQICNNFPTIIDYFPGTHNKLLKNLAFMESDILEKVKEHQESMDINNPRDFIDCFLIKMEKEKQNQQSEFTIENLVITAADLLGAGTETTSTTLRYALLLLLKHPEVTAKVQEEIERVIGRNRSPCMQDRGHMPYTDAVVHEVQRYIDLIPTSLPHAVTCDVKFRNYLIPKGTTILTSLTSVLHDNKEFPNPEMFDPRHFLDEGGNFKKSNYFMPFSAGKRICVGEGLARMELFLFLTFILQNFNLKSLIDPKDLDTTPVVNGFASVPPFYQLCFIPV
Chain of Cathepsin-L (P07711 114-333, species assumed): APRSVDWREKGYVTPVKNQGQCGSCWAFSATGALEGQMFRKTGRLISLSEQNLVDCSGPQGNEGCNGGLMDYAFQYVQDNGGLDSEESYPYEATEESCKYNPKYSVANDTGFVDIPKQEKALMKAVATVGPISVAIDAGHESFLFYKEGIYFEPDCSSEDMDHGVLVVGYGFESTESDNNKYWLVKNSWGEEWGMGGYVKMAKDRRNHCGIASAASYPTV
T4 sequence (Q14790 217-374 limits assumed, species assumed): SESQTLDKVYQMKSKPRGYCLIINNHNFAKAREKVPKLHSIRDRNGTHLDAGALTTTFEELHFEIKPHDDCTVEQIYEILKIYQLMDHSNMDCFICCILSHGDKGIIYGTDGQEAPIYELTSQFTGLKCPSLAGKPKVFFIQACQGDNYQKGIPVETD
T4 sequence (Q14790 385-479 limits assumed, species assumed): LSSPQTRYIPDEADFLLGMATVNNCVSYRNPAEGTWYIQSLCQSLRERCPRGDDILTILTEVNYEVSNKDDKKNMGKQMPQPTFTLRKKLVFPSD
T2 sequence (P25774 115-331): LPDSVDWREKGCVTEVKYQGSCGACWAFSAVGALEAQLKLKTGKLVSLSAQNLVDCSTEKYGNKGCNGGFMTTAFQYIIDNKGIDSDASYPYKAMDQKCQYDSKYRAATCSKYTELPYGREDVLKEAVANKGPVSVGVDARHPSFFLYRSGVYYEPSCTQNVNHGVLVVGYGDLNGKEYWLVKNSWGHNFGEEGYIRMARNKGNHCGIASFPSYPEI
T3 sequence (P42574 29-175 limits assumed, species assumed): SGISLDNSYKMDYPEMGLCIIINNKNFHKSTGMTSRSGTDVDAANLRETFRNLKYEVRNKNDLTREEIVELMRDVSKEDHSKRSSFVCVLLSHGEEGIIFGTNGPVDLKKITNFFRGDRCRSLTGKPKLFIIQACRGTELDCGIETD
T3 sequence (P42574 176-277 limits assumed, species assumed): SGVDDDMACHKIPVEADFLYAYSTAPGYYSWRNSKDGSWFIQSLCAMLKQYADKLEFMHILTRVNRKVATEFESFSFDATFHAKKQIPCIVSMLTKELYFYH
Description for Caco-2 monolayer: To explore the in vitro ADME profiles of the compounds, additional tests were conducted.

Usually IC50 stands for the concentration that inhibits the measured activity by half. Turning to `CCN(CC)c1ccc(CN2CCc3nc(C)[nH]c(=O)c3C2)c(OC)c1` [Compound 64], the IC50 at purified human AEP was found to be 2370 nM. Moreover, at Cathepsin-L, the “selectivity for AEP over Cathepsin-L” value is given as “over 40 fold”. In addition, the “selectivity for AEP over Cathepsin-S” value on Cathepsin-S is “over 40 fold”. The “selectivity for AEP over Caspase-3” value on Caspase-3 is “about 6 fold”. Besides, the “selectivity for AEP over Caspase-8” value at Caspase-8 is reported as “over 40 fold”. Further, the “A -> B Papp” value in the series on Caco-2 monolayer (Caco-2) is recorded as “<LLOQ”. For the same molecule, the “B -> A Papp” value in the series on Caco-2 monolayer (Caco-2) is “<LLOQ”. The “CYP inhibition, CYP3A4-Midazolam” value was found to be 0.6% on CYP3A4 (test concentration 3 μM) and 10.1% on CYP3A4 (test concentration 10 μM). The “CYP inhibition, CYP3A-Testosterone” value in the series on CYP3A (test concentration 3 μM) is 1.5%; with CYP3A (test concentration 10 μM) it was −0.1%. In addition, the “CYP inhibition, CYP2C9” value at CYP2C9 (test concentration 3 μM) stood at 4.6%; on CYP2C9 (test concentration 10 μM), 7.9%. Besides, the “CYP inhibition, CYP2D6” value at CYP2D6 (test concentration 3 μM) is given as 34.6%; at CYP2D6 (test concentration 10 μM), 58.3%. The “CYP inhibition, CYP2C19” value at CYP2C19 (test concentration 3 μM) is 31.6%; at CYP2C19 (test concentration 10 μM), 20.4%. Moreover, the results for the “CYP inhibition, CYP1A2” value at CYP1A2 (test concentration 3 μM) and at CYP1A2 (test concentration 10 μM) were 23.7% and 22.2%, respectively. The “cleavage of APP after OGD” value in series [1] is listed as “blocked”.

In the case of `COc1ccc(N2CCN(C(c3ccc(N(C)C)cc3)c3nnnn3C(C)(C)C)CC2)cc1` (stereo not drawn) [Compound 31], the “Caco-2 permeability (in words)” value in the series on Caco-2 monolayer is listed as “highly permeable”. Moreover, the “A -> B Papp” value in the series on Caco-2 monolayer (Caco-2) is given as 19.3 10^−6 cm · s^−1. Further, in the series with Caco-2 monolayer (Caco-2), the “B -> A Papp” value was 17.4 10^−6 cm · s^−1. Also, the RE with Caco-2 monolayer (Caco-2) came to 0.9. In addition, the “CYP inhibition, CYP3A4-Midazolam” value at CYP3A4 (test concentration 3 μM) is on record as −0.9%; on CYP3A4 (test concentration 10 μM), 18.1%. Also, the “CYP inhibition, CYP3A-Testosterone” value in the series on CYP3A (test concentration 3 μM) worked out at 2.5%; with CYP3A (test concentration 10 μM), 0.7%. The “CYP inhibition, CYP2C9” value on CYP2C9 (test concentration 3 μM) was 47.8%; on CYP2C9 (test concentration 10 μM) it was 69.2%. Further, the “CYP inhibition, CYP2D6” value on CYP2D6 (test concentration 3 μM) was determined as 9.9%; at CYP2D6 (test concentration 10 μM), 1.4%. In addition, the “CYP inhibition, CYP2C19” value at CYP2C19 (test concentration 3 μM) was 37.7%; at CYP2C19 (test concentration 10 μM), 55.7%. In addition, the “CYP inhibition, CYP1A2” value at CYP1A2 (test concentration 3 μM) worked out at 13.5%; at CYP1A2 (test concentration 10 μM), 10.3%. Besides, the “cleavage of APP after OGD” value in series [1] is on record as “blocked”. The Pe result in [2] is “<LLOQ”. Moreover, the “Mean Remaining Parent (NADPH-free)” value in series [3] is given as 75%; in series [4], 86%. For the same molecule, the “Mean Remaining Parent (with NADPH)” value in series [3] (30 min of incubation) was 12%; in [4], 16%.

The values above are taken from patent publication US20170029388A1, “Treatment of Neurodegenerative Diseases with Asparagine Endopeptidase (AEP) Inhibitors and Compositions Related Thereto” (INTERCONTINENTAL GREAT BRANDS LLC, priority 2014, published 2017).
